Measurements taken from ChEMBL document CHEMBL1777722, “Design and synthesis of 5,6-fused heterocyclic amides as Raf kinase inhibitors” (Bioorg Med Chem Lett, 2011).
Activity calls are given as the source filed them. No cut-off for these calls is given here.

Columns and labels:
[1] = molecular target: RAF proto-oncogene serine/threonine-protein kinase (Homo sapiens, UniProt P04049); assay: Inhibition of c-Raf assessed as phosphorylation of MEK1/2 by ELISA
[2] = molecular target: T1, Serine/threonine-protein kinase B-raf (Homo sapiens, UniProt P15056, V600E); assay: Inhibition of B-Raf V599E mutant assessed as phosphorylation of MEK1/2 by ELISA
T1 sequence (P15056 2-766 V600E limits assumed): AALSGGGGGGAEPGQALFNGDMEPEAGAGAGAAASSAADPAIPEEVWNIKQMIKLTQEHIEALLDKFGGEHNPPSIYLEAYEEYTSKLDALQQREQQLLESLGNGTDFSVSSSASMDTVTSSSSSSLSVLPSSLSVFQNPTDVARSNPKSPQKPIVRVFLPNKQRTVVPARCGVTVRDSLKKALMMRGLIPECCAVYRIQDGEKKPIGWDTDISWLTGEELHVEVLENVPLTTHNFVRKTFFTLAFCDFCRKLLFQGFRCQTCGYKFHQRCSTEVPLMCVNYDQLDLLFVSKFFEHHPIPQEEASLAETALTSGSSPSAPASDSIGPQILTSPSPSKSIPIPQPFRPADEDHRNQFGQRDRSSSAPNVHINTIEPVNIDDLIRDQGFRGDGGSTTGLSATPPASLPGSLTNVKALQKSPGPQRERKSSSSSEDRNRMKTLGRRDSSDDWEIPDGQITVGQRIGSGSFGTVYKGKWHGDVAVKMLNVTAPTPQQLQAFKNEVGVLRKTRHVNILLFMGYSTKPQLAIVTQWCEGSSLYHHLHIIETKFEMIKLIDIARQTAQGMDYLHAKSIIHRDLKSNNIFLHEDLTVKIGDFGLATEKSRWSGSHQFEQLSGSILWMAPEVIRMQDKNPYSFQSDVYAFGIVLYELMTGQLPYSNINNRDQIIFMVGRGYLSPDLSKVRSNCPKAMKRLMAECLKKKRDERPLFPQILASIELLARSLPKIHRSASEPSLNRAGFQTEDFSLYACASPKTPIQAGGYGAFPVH

[3] = molecular target: Vascular endothelial growth factor receptor 2 (Homo sapiens) (UniProt P35968); assay: Inhibition of KDR
Sequence of Vascular endothelial growth factor receptor 2 (Homo sapiens) (P35968 whole entry): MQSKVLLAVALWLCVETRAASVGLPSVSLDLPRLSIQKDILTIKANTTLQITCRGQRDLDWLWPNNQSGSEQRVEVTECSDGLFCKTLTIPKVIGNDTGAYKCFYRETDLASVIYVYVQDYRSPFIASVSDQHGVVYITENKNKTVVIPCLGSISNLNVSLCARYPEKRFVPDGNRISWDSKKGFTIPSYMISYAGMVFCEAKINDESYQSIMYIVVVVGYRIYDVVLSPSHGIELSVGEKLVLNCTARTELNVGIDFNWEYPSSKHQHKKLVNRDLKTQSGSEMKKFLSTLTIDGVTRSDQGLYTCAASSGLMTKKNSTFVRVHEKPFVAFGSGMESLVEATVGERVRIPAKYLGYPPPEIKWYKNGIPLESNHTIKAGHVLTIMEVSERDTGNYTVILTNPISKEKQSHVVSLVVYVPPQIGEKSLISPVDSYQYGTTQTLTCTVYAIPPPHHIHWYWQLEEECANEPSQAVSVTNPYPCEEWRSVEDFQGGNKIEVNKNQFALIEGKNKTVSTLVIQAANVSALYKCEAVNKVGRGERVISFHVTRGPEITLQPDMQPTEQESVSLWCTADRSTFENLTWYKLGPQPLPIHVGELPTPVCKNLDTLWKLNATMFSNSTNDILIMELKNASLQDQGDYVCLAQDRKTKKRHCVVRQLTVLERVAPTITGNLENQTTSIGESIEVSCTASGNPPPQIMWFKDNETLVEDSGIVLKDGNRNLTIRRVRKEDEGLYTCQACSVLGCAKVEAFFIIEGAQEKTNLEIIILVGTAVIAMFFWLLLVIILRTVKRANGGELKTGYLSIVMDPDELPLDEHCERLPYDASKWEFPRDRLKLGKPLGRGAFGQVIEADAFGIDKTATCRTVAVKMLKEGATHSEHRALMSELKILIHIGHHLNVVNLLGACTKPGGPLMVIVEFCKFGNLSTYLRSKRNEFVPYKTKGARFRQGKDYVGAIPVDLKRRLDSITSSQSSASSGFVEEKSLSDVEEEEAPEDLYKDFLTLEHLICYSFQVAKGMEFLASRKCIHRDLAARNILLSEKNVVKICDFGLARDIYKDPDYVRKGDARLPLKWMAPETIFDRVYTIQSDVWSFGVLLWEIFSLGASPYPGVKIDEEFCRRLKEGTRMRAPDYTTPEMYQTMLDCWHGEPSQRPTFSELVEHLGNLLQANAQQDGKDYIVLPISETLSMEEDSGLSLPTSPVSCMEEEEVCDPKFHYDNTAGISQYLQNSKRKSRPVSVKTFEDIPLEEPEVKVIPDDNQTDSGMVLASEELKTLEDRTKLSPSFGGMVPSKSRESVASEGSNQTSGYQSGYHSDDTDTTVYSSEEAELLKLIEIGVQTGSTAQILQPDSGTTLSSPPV

[4] = molecular target: T1, Serine/threonine-protein kinase B-raf; assay: Inhibition of BRAF V600E mutant-mediated ERK phosphorylation in human SKMEL-28 cells by immunoblotting method; type: cell-based, MEL-28
[5] = molecular target: Proto-oncogene tyrosine-protein kinase receptor Ret (Homo sapiens) (UniProt P07949); assay: Inhibition of Ret
[6] = molecular target: Tyrosine-protein kinase ABL1 (Homo sapiens) (UniProt P00519); assay: Inhibition of cABL
Sequence of Tyrosine-protein kinase ABL1 (Homo sapiens) (P00519 whole entry): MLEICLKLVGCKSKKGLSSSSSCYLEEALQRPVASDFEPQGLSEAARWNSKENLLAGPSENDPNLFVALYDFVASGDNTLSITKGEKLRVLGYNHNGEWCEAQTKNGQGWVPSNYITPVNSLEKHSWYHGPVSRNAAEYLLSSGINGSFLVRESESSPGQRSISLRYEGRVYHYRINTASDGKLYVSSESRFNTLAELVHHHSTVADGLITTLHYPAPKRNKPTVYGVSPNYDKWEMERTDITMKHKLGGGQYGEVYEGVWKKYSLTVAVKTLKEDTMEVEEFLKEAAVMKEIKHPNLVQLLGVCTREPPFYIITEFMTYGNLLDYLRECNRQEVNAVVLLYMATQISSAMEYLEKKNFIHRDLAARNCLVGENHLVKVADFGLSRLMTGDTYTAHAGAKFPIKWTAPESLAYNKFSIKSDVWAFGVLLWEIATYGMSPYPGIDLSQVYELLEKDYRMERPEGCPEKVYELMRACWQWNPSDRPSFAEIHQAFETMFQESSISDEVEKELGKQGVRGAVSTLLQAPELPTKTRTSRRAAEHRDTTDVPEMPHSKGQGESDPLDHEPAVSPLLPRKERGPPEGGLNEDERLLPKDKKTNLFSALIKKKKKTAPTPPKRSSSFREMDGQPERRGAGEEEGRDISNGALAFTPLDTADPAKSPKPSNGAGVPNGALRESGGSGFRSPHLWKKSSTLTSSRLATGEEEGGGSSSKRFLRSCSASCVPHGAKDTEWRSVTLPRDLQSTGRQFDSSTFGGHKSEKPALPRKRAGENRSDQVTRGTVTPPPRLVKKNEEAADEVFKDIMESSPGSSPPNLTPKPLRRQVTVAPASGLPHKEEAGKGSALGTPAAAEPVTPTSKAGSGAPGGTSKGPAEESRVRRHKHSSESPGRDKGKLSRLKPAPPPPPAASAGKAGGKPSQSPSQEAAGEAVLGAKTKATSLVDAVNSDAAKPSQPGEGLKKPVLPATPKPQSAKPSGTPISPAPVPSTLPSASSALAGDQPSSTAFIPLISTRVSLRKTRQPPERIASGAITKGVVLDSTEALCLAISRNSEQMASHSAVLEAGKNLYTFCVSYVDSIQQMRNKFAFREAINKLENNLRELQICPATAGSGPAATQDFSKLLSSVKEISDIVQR

[7] = molecular target: Macrophage colony-stimulating factor 1 receptor (Homo sapiens) (UniProt P07333); assay: Inhibition of CSFR1
Sequence of Macrophage colony-stimulating factor 1 receptor (Homo sapiens) (P07333 whole entry): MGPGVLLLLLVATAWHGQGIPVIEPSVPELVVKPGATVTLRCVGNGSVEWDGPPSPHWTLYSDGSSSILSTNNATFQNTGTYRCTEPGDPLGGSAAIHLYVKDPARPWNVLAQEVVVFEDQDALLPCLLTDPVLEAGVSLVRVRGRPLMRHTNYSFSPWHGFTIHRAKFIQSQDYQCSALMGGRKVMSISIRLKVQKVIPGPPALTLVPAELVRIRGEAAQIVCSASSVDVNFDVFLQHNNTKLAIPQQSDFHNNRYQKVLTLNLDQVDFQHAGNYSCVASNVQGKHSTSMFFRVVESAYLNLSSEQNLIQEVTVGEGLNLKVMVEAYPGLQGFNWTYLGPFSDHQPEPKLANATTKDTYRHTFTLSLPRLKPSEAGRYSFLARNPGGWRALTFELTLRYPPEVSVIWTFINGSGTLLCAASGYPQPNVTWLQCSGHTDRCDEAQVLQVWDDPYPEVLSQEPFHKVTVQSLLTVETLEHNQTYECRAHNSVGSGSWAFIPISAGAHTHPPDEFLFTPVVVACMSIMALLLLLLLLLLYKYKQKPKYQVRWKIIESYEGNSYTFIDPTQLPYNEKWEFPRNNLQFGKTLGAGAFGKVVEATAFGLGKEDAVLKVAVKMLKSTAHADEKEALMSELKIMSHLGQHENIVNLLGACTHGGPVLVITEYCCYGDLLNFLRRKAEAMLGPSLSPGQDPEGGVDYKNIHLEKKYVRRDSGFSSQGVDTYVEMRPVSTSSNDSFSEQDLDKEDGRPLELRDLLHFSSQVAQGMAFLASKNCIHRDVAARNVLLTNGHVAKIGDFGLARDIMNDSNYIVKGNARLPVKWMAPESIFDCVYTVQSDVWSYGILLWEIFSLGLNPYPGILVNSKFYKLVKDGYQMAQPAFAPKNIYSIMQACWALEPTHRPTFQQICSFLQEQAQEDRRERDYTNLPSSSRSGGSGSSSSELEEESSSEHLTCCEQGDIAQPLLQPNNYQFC

[8] = molecular target: Receptor-type tyrosine-protein kinase FLT3 (Homo sapiens) (UniProt P36888); assay: Inhibition of Flt3
[9] = Half life in mouse at 20 mg/kg, po administered as single dose; type: ADME, organism-based; parameters: dose 20 mg/kg, route oral; conditions: in vivo
Mus musculus = assay: Volume of distribution in mouse at 20 mg/kg, po administered as single dose; type: ADME, organism-based; parameters: dose 20 mg/kg, route oral; conditions: in vivo
[10] = Oral bioavailability in mouse at 20 mg/kg administered as single dose; type: ADME, organism-based; conditions: in vivo
[11] = Clearance in mouse at 20 mg/kg, po administered as single dose; type: ADME, organism-based; parameters: dose 20 mg/kg, route oral; conditions: in vivo

Sequence of RAF proto-oncogene serine/threonine-protein kinase (P04049 whole entry): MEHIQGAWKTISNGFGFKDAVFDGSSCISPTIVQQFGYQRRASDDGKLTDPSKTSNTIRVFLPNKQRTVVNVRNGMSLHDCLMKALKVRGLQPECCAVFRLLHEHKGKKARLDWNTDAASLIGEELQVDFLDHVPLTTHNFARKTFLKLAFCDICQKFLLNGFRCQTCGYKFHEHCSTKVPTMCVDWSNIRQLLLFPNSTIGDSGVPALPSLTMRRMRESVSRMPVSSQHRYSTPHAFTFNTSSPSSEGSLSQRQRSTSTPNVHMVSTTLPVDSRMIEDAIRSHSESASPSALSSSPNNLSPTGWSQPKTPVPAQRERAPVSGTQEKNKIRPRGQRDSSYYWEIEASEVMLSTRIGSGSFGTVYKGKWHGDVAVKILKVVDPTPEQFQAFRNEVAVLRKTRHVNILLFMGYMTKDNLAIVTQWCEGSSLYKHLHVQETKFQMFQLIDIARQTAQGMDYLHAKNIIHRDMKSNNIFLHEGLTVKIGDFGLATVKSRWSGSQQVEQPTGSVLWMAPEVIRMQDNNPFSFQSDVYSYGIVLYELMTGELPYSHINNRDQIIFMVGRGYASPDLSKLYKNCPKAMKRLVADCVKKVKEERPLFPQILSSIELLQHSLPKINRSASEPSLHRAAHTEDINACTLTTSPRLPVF

Structure (SMILES)	IC50 [1] [nM]	IC50 [2] [nM]	EC50 [4] [nM]	other results
CNC(=O)c1cc(Oc2ccc3oc(Nc4ccc(Cl)cc4)nc3c2)ccn1	19	21	–	–
CNC(=O)c1cc(Oc2ccc3sc(Nc4ccc(C)cc4)nc3c2)ccn1	7	26	–	half-life [9]: 80 min; Vd (Mus musculus): 1.042 L/kg; bioavailability [10]: 90%; CL/F [11]: 14.1 mL/min/kg
CCCCc1ccc(Nc2nc3cc(Oc4ccnc(C(=O)NC)c4)ccc3o2)cc1	2	11	–	–
CNC(=O)c1cc(Oc2ccc3oc(Nc4ccc(Oc5ccccc5)cc4)nc3c2)ccn1	53	680	–	–
CNC(=O)c1cc(Oc2ccc3oc(Nc4ccc(N(C)C)cc4)nc3c2)ccn1	12	130	–	–
CNC(=O)c1cc(Oc2ccc3c(c2)nc(Nc2cccc(C(C)(C)C)c2)n3C)ccn1	–	120	280	–
CNC(=O)c1cc(Oc2ccc3oc(Nc4cccc(C(C)C)c4)nc3c2)ccn1	3	–	1000	inhibition [3]: Active; inhibition [5]: Active; inhibition [6]: Active; inhibition [7]: Active; inhibition [8]: Active
CCc1ccc(Nc2nc3cc(Oc4ccnc(C(=O)NC)c4)ccc3o2)cc1	1	5	7000	half-life [9]: 32 min; Vd (Mus musculus): 0.082 L/kg; bioavailability [10]: 33%; CL/F [11]: 0.93 mL/min/kg
CNC(=O)c1cc(Oc2ccc3oc(Nc4cccc(C(F)(F)F)c4)nc3c2)ccn1	27	110	–	–
CC(C)(C)c1cccc(Nc2nc3cc(Oc4ccnc(C(N)=O)c4)ccc3s2)c1	1	2	2900	–
CNC(=O)c1cc(Oc2ccc3sc(Nc4ccc(OC(F)(F)F)cc4)nc3c2)ccn1	4	18	–	–
CNC(=O)c1cc(Oc2ccc3oc(Nc4ccccc4F)nc3c2)ccn1	200	580	–	–
CNC(=O)c1cc(Oc2ccc3oc(Nc4ccc(OC(F)(F)F)cc4)nc3c2)ccn1	2	12	–	–
CC(C)c1cccc(Nc2nc3cc(Oc4ccnc(C(=O)NCCN5CCOCC5)c4)ccc3o2)c1	140	200	–	–
CCc1ccccc1Nc1nc2cc(Oc3ccnc(C(=O)NC)c3)ccc2o1	110	340	–	–
CCCCc1ccc(Nc2nc3cc(Oc4ccnc(C(=O)NC)c4)ccc3s2)cc1	9	65	–	–
CNC(=O)c1cc(Oc2ccc3sc(Nc4ccc(C(C)C)cc4)nc3c2)ccn1	3	19	3200	–

Further compounds by falling IC50 [1], results first:

IC50 [1] [nM]	IC50 [2] [nM]	EC50 [4] [nM]	Structure (SMILES)	other results
7300	17000	–	CCN1CCN(c2ccc(Nc3nc4cc(Oc5ccnc(C(=O)NC)c5)ccc4o3)cc2)CC1	–
120	260	–	CNC(=O)c1cc(Oc2ccc3oc(Nc4ccccc4Cl)nc3c2)ccn1	–
41	240	> 10000	O=C(NCCN1CCOCC1)c1cc(Oc2ccc3sc(Nc4ccc(Br)cc4)nc3c2)ccn1	–
4	4	3700	CC(C)c1cccc(Nc2nc3cc(Oc4ccnc(C(N)=O)c4)ccc3o2)c1	–
4	15	–	CNC(=O)c1cc(Oc2ccc3sc(Nc4ccc(Cl)cc4)nc3c2)ccn1	–
3	25	10000	CNC(=O)c1cc(Oc2ccc3oc(Nc4ccc(Br)cc4)nc3c2)ccn1	–
2	7	> 10000	CNC(=O)c1cc(Oc2ccc3sc(Nc4ccc(Br)cc4)nc3c2)ccn1	–
1	4	2100	CNC(=O)c1cc(Oc2ccc3sc(Nc4cccc(C(C)(C)C)c4)nc3c2)ccn1	inhibition [3]: Active; inhibition [5]: Active; inhibition [6]: Active; inhibition [7]: Active; inhibition [8]: Active
1	6	1000	CNC(=O)c1cc(Oc2ccc3oc(Nc4cccc(C(C)(C)C)c4)nc3c2)ccn1	–
1	6	–	CNC(=O)c1cc(Oc2ccc3oc(Nc4ccc(C(C)C)cc4)nc3c2)ccn1	–
